One test addresses Factor XIa (Homo sapiens, UniProt P03951). Put plainly: Factor XIa inhibition assay utilizing a fluorophore-quencher pair peptide substrate (FLINT). The following applies: 11-point, 3-fold serial dilution, top 100 nM; 30 min preincubation; 15 μM 5Fam-KLTRAETV-K5Tamra substrate; kinetic reads over 30 min; read-out: FXIa Inhibition IC50. Type of test: biochemical. The procedure, abridged:
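FXIa ([…]) preincubated 30 min with compound (11-point, 3-fold, top 100 nM, 2% DMSO) in Tris pH 7.5, NaCl, CaCl2, BSA, CHAPS; 15 μM 5Fam-KLTRAETV-K5Tamra substrate then added. Fluorescence (485/520 nm) read kinetically over 30 min at room temperature; IC50 by 4-parameter fit.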

In a further test the target is human plasma kallikrein (Homo sapiens, UniProt P03952). In words: Kallikrein inhibition assay utilizing a quenched AMC peptide substrate (FLINT). The class given is biochemical. Particulars: 11-point, 3-fold serial dilution, top 1 μM; 30 min preincubation; 2 nM kallikrein; 50 μM Z-Gly-Pro-Arg-AMC; kinetic reads over 30 min. The procedure, abridged: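 Human plasma kallikrein (2 nM final) was pre-incubated 30 min at room temperature with compound (11-point 3-fold series, top 1 μM, 2% DMSO) in Tris pH 7.5, NaCl, CaCl2, BSA, CHAPS buffer. Reaction started with 50 μM Z-Gly-Pro-Arg-AMC (KM 40 μM), and fluorescence (340/440 nm) was read kinetically over 30 min. IC50 came from a 4-parameter logistic fit.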

Where only a bound is given, the exact number is not on record here.

human plasma kallikrein, sequence (P03952 391-638 limits assumed): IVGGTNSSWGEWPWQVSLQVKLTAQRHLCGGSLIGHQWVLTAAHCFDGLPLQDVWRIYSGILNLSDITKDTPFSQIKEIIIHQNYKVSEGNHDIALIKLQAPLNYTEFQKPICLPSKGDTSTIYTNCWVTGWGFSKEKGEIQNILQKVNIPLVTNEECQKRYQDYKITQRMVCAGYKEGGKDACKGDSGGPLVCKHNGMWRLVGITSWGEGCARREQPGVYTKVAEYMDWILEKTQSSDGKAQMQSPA
human plasma kallikrein, sequence (P03952 20-390 partner limits assumed): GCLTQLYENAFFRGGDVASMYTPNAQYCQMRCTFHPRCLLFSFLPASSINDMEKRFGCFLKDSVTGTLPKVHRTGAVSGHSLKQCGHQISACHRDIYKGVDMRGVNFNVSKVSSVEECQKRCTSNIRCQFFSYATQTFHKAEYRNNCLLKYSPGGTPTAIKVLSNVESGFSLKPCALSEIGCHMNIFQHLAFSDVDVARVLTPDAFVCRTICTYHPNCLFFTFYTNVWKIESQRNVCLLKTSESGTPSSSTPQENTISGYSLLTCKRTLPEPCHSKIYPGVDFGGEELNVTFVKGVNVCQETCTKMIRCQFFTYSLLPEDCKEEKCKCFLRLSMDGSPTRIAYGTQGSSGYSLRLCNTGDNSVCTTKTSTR
Factor XIa, sequence (P03951 388-625 limits assumed): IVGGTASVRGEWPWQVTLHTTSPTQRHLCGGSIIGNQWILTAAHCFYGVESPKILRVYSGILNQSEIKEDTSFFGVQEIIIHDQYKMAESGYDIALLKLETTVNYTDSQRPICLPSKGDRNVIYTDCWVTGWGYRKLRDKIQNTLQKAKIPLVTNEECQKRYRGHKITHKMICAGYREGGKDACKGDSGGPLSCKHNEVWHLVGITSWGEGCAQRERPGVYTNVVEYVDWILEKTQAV
Factor XIa, sequence (P03951 19-387 partner limits assumed): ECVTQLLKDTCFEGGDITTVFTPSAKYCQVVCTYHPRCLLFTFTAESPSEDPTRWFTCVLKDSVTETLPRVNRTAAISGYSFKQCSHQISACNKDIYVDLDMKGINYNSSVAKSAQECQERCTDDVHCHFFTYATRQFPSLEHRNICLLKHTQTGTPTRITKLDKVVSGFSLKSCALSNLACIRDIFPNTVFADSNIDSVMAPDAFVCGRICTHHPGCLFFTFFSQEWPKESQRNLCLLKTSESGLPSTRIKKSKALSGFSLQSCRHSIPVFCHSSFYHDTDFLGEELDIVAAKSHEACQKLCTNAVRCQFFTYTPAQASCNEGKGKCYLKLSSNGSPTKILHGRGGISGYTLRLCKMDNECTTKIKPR

On to `O=C(Nc1ccc2ncc(F)cc2c1)[C@@H]1CC[C@@H]2CC(c3c(-n4cnnn4)ccc(Cl)c3F)=CC(=O)N21` [ID No. 10, (3S,8aR)-7-(3-Chloro-2-fluoro-6-(1H-tetrazol-1-yl)phenyl)-N-(3-fluoroquinolin-6-yl)-5-oxo-1,2,3,5,8,8a-hexahydroindolizine-3-carboxamide], for which the values for the IC50 at Factor XIa and against human plasma kallikrein were 0.0108 µM and 0.0225 µM, respectively.

With `O=C(Nc1ccc(-c2nc[nH]n2)cc1)[C@@H]1CCC2CC(c3c(-n4cnnn4)ccc(Cl)c3F)=CC(=O)N21` (mixture of isomers) [ID No. 69, (3S)-7-[3-Chloro-2-fluoro-6-(tetrazol-1-yl)phenyl]-5-oxo-N-[4-(1H-1,2,4-triazol-3-yl)phenyl]-2,3,8,8a-tetrahydro-1H-indolizine-3-carboxamide], the IC50 – broadly, the concentration at which inhibition is half-maximal – on Factor XIa came to 0.0073 µM; at human plasma kallikrein, 0.0523 µM.

Take `CN(O)C(=O)c1cc2cc(NC(=O)[C@@H]3CCC4CC(c5c(-n6cnnn6)ccc(Cl)c5F)=CC(=O)N43)ccc2[nH]1` (mixture of isomers) [ID No. 31, 5-((3S)-7-(3-Chloro-2-fluoro-6-(1H-tetrazol-1-yl)phenyl)-5-oxo-1,2,3,5,8,8a-hexahydroindolizine-3-carboxamido)-N-hydroxy-N-methyl-1H-indole-2-carboxamide]: the IC50 at Factor XIa worked out at 0.0048 µM; against human plasma kallikrein it was 0.0237 µM.

For `O=C(Nc1ccc2nccc(O)c2c1)[C@@H]1CC[C@@H]2CC(c3c(-n4cnnn4)ccc(Cl)c3F)=CC(=O)N21` [ID No. 9, (3S,8aR)-7-(3-Chloro-2-fluoro-6-(1H-tetrazol-1-yl)phenyl)-N-(4-hydroxyquinolin-6-yl)-5-oxo-1,2,3,5,8,8a-hexahydroindolizine-3-carboxamide], the IC50 turned out to be 0.0166 µM at Factor XIa and 0.0202 µM against human plasma kallikrein.

Turning to `NC(=O)c1ccc(NC(=O)[C@@H]2CC[C@@H]3CC(c4c(-n5cc(C(F)(F)F)nn5)ccc(Cl)c4F)=CC(=O)N32)cc1F` [ID No. 24, (3S,8aR)—N-(4-Carbamoyl-3-fluorophenyl)-7-(3-chloro-2-fluoro-6-(4-(trifluoromethyl)-1H-1,2,3-triazol-1-yl)phenyl)-5-oxo-1,2,3,5,8,8a-hexahydroindolizine-3-carboxamide], the IC50 at Factor XIa was determined as 0.0382 µM; at human plasma kallikrein, 0.0761 µM.

In the case of `CCOCCOc1ccc2cc(NC(=O)[C@@H]3CCC4CC(c5c(-n6cc(C(F)(F)F)nn6)ccc(Cl)c5F)=CC(=O)N43)ccc2n1` (mixture of isomers) [compound 107], the concentration for half-maximal inhibition (IC50) on Factor XIa was greater than 0.05 µM; at human plasma kallikrein, 0.19 µM.

Regarding `C[C@H]1C[C@@H](C(=O)Nc2ccc3nccnc3c2)N2C(=O)C=C(c3c(-n4cnnn4)ccc(Cl)c3F)C[C@@H]12` (single isomer, unassigned) [ID No. 79, (1S*,3S,8aS*)-7-[3-Chloro-2-fluoro-6-(tetrazol-1-yl)phenyl]-1-methyl-5-oxo-N-quinoxalin-6-yl-2,3,8,8a-tetrahydro-1H-indolizine-3-carboxamide], the 50% inhibitory concentration (IC50) on Factor XIa was 0.0039 µM; at human plasma kallikrein it was 0.0075 µM.

Consider `Cn1nc2ccc(NC(=O)C3CCC4CC(c5c(-n6cc(Cl)nn6)ccc(Cl)c5F)=CC(=O)N43)cc2n1` (stereo not drawn) [compound 105], for which the figures for the IC50 on Factor XIa and on human plasma kallikrein were greater than 0.05 µM and 0.12 µM, respectively.

As for `O=C(Nc1ccc(-c2nc(=O)o[nH]2)c(F)c1)[C@@H]1CC[C@H]2CC(c3c(-n4cnnn4)ccc(Cl)c3F)=CC(=O)N21` (single isomer, unassigned) [ID No. 36, (3S,8aS*)-7-(3-Chloro-2-fluoro-6-(1H-tetrazol-1-yl)phenyl)-N-(3-fluoro-4-(5-oxo-2,5-dihydro-1,2,4-oxadiazol-3-yl)phenyl)-5-oxo-1,2,3,5,8,8a-_hexahydroindolizine-3-carboxamide], the IC50 came out at 0.0004 µM at Factor XIa and 0.0088 µM at human plasma kallikrein.

With `O=C(Nc1ccc(-c2nc(=O)o[nH]2)c(F)c1)[C@@H]1CCC2CC(c3c(-n4cnnn4)ccc(Cl)c3F)=CC(=O)N21` (single isomer, unassigned) [ID No. 35, (3S,8aR*)-7-[3-Chloro-2-fluoro-6-(tetrazol-1-yl)phenyl]-N-[3-fluoro-4-(5-oxo-2H-1,2,4-oxadiazol-3-yl)phenyl]-5-oxo-2,3,8,8a-tetrahydro-1H-indolizine-3-carboxamide], the IC50 at Factor XIa is 0.0004 µM; at human plasma kallikrein, 0.0064 µM.

Take `COCCNC(=O)c1ccc(NC(=O)[C@@H]2CC[C@@H]3CC(c4c(-n5cnnn5)ccc(Cl)c4F)=CC(=O)N32)cc1F` (single isomer, unassigned) [ID No. 5, (3S,8aR*)-7-(3-chloro-2-fluoro-6-(1H-tetrazol-1-yl)phenyl)-N-(3-fluoro-4-((2-methoxyethyl)carbamoyl)phenyl)-5-oxo-1,2,3,5,8,8a-hexahydroindolizine-3-carboxamide]: the IC50 at Factor XIa is 0.0155 µM; against human plasma kallikrein, 0.128 µM.

Regarding `C[C@@H](O)c1cnc2cc(NC(=O)[C@@H]3CCC4CC(c5c(-n6cnnn6)ccc(Cl)c5F)=CC(=O)N43)ccc2n1` (single isomer, unassigned) [ID No. 2], the IC50 amounted to 0.0064 µM at Factor XIa and 0.0113 µM on human plasma kallikrein.

As to `O=C(Nc1ccc(-c2cnn[nH]2)cc1)[C@@H]1CCC2CC(c3c(-n4cnnn4)ccc(Cl)c3F)=CC(=O)N21` (mixture of isomers) [ID No. 68, (3S)-7-[3-Chloro-2-fluoro-6-(tetrazol-1-yl)phenyl]-5-oxo-N-[4-(1H-triazol-5-yl)phenyl]-2,3,8,8a-tetrahydro-1H-indolizine-3-carboxamide], the IC50 was determined as 0.0017 µM on Factor XIa and 0.0471 µM at human plasma kallikrein.

Take `CO[C@@H]1C[C@@H](C(=O)Nc2ccc3ncccc3c2)N2C(=O)C=C(c3c(-n4cnnn4)ccc(Cl)c3F)CC12` (mixture of isomers) [ID No. 45, (1R,3S)-7-[3-Chloro-2-fluoro-6-(tetrazol-1-yl)phenyl]-1-methoxy-5-oxo-N-(6-quinolyl)-2,3,8,8a-tetrahydro-1H-indolizine-3-carboxamide]: the IC50 at Factor XIa worked out at 0.0078 µM; on human plasma kallikrein, 0.014 µM.

`O=C(Nc1ccc(-n2cnnn2)cc1)[C@@H]1CCC2CC(c3c(-n4cnnn4)ccc(Cl)c3F)=CC(=O)N21` (mixture of isomers) [ID No. 73, (3S)-7-[3-Chloro-2-fluoro-6-(tetrazol-1-yl)phenyl]-5-oxo-N-[4-(tetrazol-1-yl)phenyl]-2,3,8,8a-tetrahydro-1H-indolizine-3-carboxamide]: the figures for the IC50 on Factor XIa and against human plasma kallikrein were 0.0263 µM and 0.156 µM, respectively.

As for `O=C(Nc1ccc2c(c1)C1(CCCC1)C(=O)N2)[C@@H]1CC[C@@H]2CC(c3c(-n4cnnn4)ccc(Cl)c3F)=CC(=O)N21` [ID No. 8, (3S,8aR)-7-(3-Chloro-2-fluoro-6-(1H-tetrazol-1-yl)phenyl)-5-oxo-N-(2′-oxospiro[cyclopentane-1,3′-indolin]-5′-yl)-1,2,3,5,8,8a-hexahydroindolizine-3-carboxamide], the IC50 at Factor XIa was 0.0621 µM; against human plasma kallikrein, 0.178 µM.

For `O=C(O)/C=C/c1ccc(NC(=O)[C@@H]2CCC3CC(c4c(-n5cnnn5)ccc(Cl)c4F)=CC(=O)N32)cc1` (mixture of isomers) [ID No. 32, (E)-3-(4-((3S)-7-(3-Chloro-2-fluoro-6-(1H-tetrazol-1-yl)phenyl)-5-oxo-1,2,3,5,8,8a-hexahydroindolizine-3-carboxamido)phenyl)acrylic acid], the results for the IC50 on Factor XIa and against human plasma kallikrein were 0.0016 µM and 0.0144 µM, respectively.

For the molecule `O=C1CCc2cc(NC(=O)[C@@H]3CC[C@@H]4CC(c5c(-n6cnnn6)ccc(Cl)c5F)=CC(=O)N43)ccc2N1` [ID No. 13], the IC50 on Factor XIa was 0.0129 µM; on human plasma kallikrein, 0.0684 µM.

These data come from patent publication US12286429B2, “5-oxo-1,2,3,5,8,8a-hexahydroindolizine-3-carboxamide derivatives useful as a factor XIa inhibitors” (Janssen Pharmaceutica NV, priority 2021, dated 2025).
